Results from ChEMBL document CHEMBL1201862, “PubChem BioAssay data set” (2004).
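96-well plates; 48 h exposure; 5 concentrations. Endpoints by linear interpolation between flanking doses. Not reached: highest tested concentration assigned. The concentration for 50% growth inhibition is given as GI50.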 The source made the active and inactive calls. Rule as the data show it: active = GI50 up to about 1.1 µM and inactive = higher.

Tests used:
Assay in all cases: growth of human tumour cells (NCI), 48 h
[1] = system: Malme-3M
[2] = system: ACHN
[3] = system: Hs-578T
[4] = system: SF-268
[5] = system: MCF7
[6] = system: IGROV-1
[7] = system: SK-MEL-2
[8] = system: 786-0
[9] = system: U-251
[10] = system: NCI-H460
[11] = system: NCI-H23
[12] = system: OVCAR-5
[13] = system: HOP-92
[14] = system: OVCAR-8
[15] = system: A498
[16] = system: CCRF-CEM
[17] = system: MDA-N
[18] = system: SK-MEL-5
[19] = system: KM12
[20] = system: LOX IMVI
[21] = system: RPMI-8226
[22] = system: HT-29
[23] = system: M14
[24] = system: MDA-MB-231
[25] = system: DU-145
[26] = system: MOLT-4
[27] = system: UO-31
[28] = system: SW-620
[29] = system: HCC 2998
[30] = system: COLO 205
[31] = system: A549
[32] = system: SNB-19
[33] = system: SF-295
[34] = system: UACC-257
[35] = system: SN12C
[36] = system: NCI-H522
[37] = system: BT-549
[38] = system: NCI/ADR-RES
[39] = system: SR
[40] = system: HOP-62
[41] = system: PC-3
[42] = system: HCT-15
[43] = system: NCI-H226
[44] = system: HCT-116
[45] = system: RXF 393
[46] = system: EKVX
[47] = system: MDA-MB-435
[48] = system: OVCAR-3
[49] = system: K562
[50] = system: TK-10
[51] = system: SNB-75
[52] = system: CAKI-1
[53] = system: SK-MEL-28
[54] = system: HL-60
[55] = system: SF-539
[56] = system: UACC-62
[57] = system: SK-OV-3
[58] = system: T47D

Compound: Cc1ccc(NC(=O)CC(=O)N2N=C(c3ccccc3)C(/N=N/c3ccc(S(=O)(=O)CCOS(=O)(=O)O)cc3)C2=O)cc1 (stereo unspecified)
- GI50 [1]: > 100 µM (inactive)
- GI50 [2]: > 100 µM (inactive)
- GI50 [3]: 29.2 µM (inactive)
- GI50 [4]: > 100 µM (inactive)
- GI50 [5]: 65.9 µM (inactive)
- GI50 [6]: 41.6 µM (inactive)
- GI50 [7]: 57.1 µM (inactive)
- GI50 [8]: 60.5 µM (inactive)
- GI50 [9]: 41.8 µM (inactive)
- GI50 [10]: > 100 µM (inactive)
- GI50 [11]: 23.6 µM (inactive)
- GI50 [12]: > 100 µM (inactive)
- GI50 [13]: > 100 µM (inactive)
- GI50 [14]: 64.3 µM (inactive)
- GI50 [15]: > 100 µM (inactive)
- GI50 [16]: > 100 µM (inactive)
- GI50 [17]: > 100 µM (inactive)
- GI50 [18]: > 100 µM (inactive)
- GI50 [19]: 86.3 µM (inactive)
- GI50 [20]: > 100 µM (inactive)
- GI50 [21]: > 100 µM (inactive)
- GI50 [22]: > 100 µM (inactive)
- GI50 [23]: > 100 µM (inactive)
- GI50 [24]: > 100 µM (inactive)
- GI50 [25]: > 100 µM (inactive)
- GI50 [26]: > 100 µM (inactive)
- GI50 [27]: > 100 µM (inactive)
- GI50 [28]: > 100 µM (inactive)
- GI50 [29]: > 100 µM (inactive)
- GI50 [30]: > 100 µM (inactive)
- GI50 [31]: > 100 µM (inactive)
- GI50 [32]: > 100 µM (inactive)
- GI50 [33]: > 100 µM (inactive)
- GI50 [34]: > 100 µM (inactive)
- GI50 [35]: > 100 µM (inactive)
- GI50 [36]: 58.6 µM (inactive)
- GI50 [37]: > 100 µM (inactive)
- GI50 [38]: > 100 µM (inactive)
- GI50 [39]: > 100 µM (inactive)
- GI50 [40]: 77.6 µM (inactive)
- GI50 [41]: > 100 µM (inactive)
- GI50 [42]: > 100 µM
- GI50 [43]: > 100 µM (inactive)
- GI50 [44]: 57.9 µM (inactive)
- GI50 [45]: > 100 µM (inactive)
- GI50 [46]: > 100 µM (inactive)
- GI50 [47]: > 100 µM (inactive)
- GI50 [48]: > 100 µM (inactive)
- GI50 [49]: > 100 µM (inactive)
- GI50 [50]: > 100 µM (inactive)
- GI50 [51]: > 100 µM (inactive)
- GI50 [52]: > 100 µM (inactive)
- GI50 [53]: > 100 µM (inactive)
- GI50 [54]: > 100 µM (inactive)
- GI50 [55]: > 100 µM (inactive)

Compound: CCN(CC)C(=S)SS(=O)(=O)c1ccc([N+](=O)[O-])cc1
- GI50 [1]: 14.9 µM (inactive)
- GI50 [7]: 48.3 µM (inactive)
- GI50 [8]: 16.7 µM (inactive)
- GI50 [9]: 14.5 µM (inactive)
- GI50 [10]: 96.2 µM (inactive)
- GI50 [11]: 56.8 µM (inactive)
- GI50 [12]: > 100 µM (inactive)
- GI50 [14]: 20.4 µM (inactive)
- GI50 [15]: > 100 µM (inactive)
- GI50 [18]: 2.77 µM (inactive)
- GI50 [20]: 17.5 µM (inactive)
- GI50 [21]: 12.8 µM (inactive)
- GI50 [56]: 27.4 µM (inactive)
- GI50 [27]: 21.7 µM (inactive)
- GI50 [30]: 19.9 µM (inactive)
- GI50 [31]: 1.18 µM (inactive)
- GI50 [57]: > 100 µM (inactive)
- GI50 [32]: 76.7 µM (inactive)
- GI50 [36]: 0.0282 µM (active)
- GI50 [37]: 36.8 µM (inactive)
- GI50 [39]: 0.148 µM (active)
- GI50 [58]: 43.2 µM (inactive)
- GI50 [46]: > 100 µM (inactive)
- GI50 [49]: 19.4 µM (inactive)
- GI50 [52]: 18.8 µM (inactive)
- GI50 [55]: 21.2 µM (inactive)
